Entries after “also recorded” stand apart in the source; their conditions may differ.
Key:
[1] = system: histones H3 and H4 in colorectal cancer cell lines RKO, Co115, HCT-116, SW48 and LoVo; assay: Histone H3 and H4 acetylation levels (western blot, HPCE) after treatment with HDAC inhibitors; type: cell-based, human; conditions: 24 hours
Text: To address these issues we assessed the effects of three classical HDACis, the hydroxamic acid trichostatin A and the carboxylic acids butyrate and valproate, on five colorectal cancer cell lines: the HDAC2-mutant cell lines RKO and Co115, and the HDAC2-wild type cell lines HCT-116, SW48 and LoVo. We analyzed the acetylation levels at histones H3 and H4 using western blotting with antibodies raised against tetraacetylated peptides of histones H3 and […], and high-performance capillary electrophoresis (HPCE)^3. […] The HDAC2-deficient cells were resistant to trichostatin A action from a biochemical and also a cellular point of view.
(§1) Human colorectal and endometrial cancer cell lines were obtained from the American Type Culture Collection. HDAC inhibition treatment was developed adding 0.25 μM trichostatin A, 10 mM sodium valproate or 10 mM sodium butyrate to the culture medium for 24 hours. We obtained DNA samples from 228 human primary malignancies corresponding to colon tumors of HPNCC patients (n=47) and sporadic MSI+colon (n=127), MSI-colon (n=40), gastric (n=38) and endometrial carcinomas (n=16), as well as normal colon tissue (n=6), at the time of clinically indicated surgical procedures. Normal lymphocytes from healthy donors (n=50) was also used. DNA was extracted using standard protocols.
We prepared histones in accordance with established protocols1. We obtained histones from cell lines and tumor samples in parallel with their matching controls under identical conditions. For cell lines, we isolated nuclei with RSB buffer (10 mM Tris 10 (pH 7.5), 10 mM NaCl and 3 mM MgCl2) containing I—Nonidet-P40 and protease inhibitors. We extracted nuclei with 0.25 M HCl and precipitated them with eight volumes of acetone. For tumors and their normal tissue counterparts, we homogenized samples with a Polytron homogenizer (Brinkman Instruments) in 0.25 M HCl and incubated them with gentle agitation for 4 h. We precipitated the resulting supernatant with eight volumes of acetone. We then fractionated individual histones by reverse-phase HPLC on a Jupiter C18 column. We made comparisons only between samples extracted with identical methodology.
For western blotting, we collected cells by centrifugation and washed cell pellets twice with phosphate-buffered saline buffer. For HDAC2 expression, nuclear extracts were fractionated on a 7.5% SDS-PAGE gel, transferred the fractions to a polyvinylidene difluoride membrane with […] (Immobilon PSQ, Millipore), blocked the membrane in 5% milk PBS-T (phosphate-buffered saline with 0.1% Tween-20) and immunoprobed it with antibodies to HDAC2 (1:1000) and HDAC1 (1:1000; both from Abcam). The acetylated forms of histones 3 and 4 were analyzed as previously described2. We extracted the histones directly from the cell pellets with 0.250 M HCl. We fractionated 10 μg of the acid-extracted proteins on a 10% SDS-PAGE gel. Transferred membranes were immunoprobed with antibodies to acetylated H4 (1:2,000, Upstate) and acetylated H3 (1:50,000, Upstate). We used horseradish peroxidase-conjugated antibody to rabbit IgG (Amersham) at 1:3,000 dilution in PBS-T as the secondary antibody and antibody to H4 (1:3,000; Upstate) as a loading control. For immunolocalization experiments, we grew cells on coverslips and stained them with antibodies against HDAC2 and HDAC1 (Abcam) as previously described. We obtained images with a Leica DMRD photomicroscope coupled to a Leica DC200 camera, processed them using Adobe Photoshop software and analyzed them using public National Institutes of Health Image software. Immunohistochemical staining of HDAC2 was performed using a polyclonal antibody (Abcam, Cambridge, UK) at a 1:1500 dilution. After antigen retrieval with citrate buffer, immunodetection was performed by the DAKO EnVision Visualization Method (DAKO, Glostrup, Denmark), with diaminobenzidine chromogen as the substrate
We quantified global histone H4 acetylation as previously described3. […]

[2] = system: colon cancer cell lines (RKO, Co115, HCT-116, SW48, LoVo); assay: Cell viability (MTT assay) of colon cancer cell lines; type: cell-based, human; conditions: for inhibition of proliferation: all cancer cell lines independently of HDAC2 status
Method: Cells were treated for 48 h with different concentrations of TSA (0-1000 nM). Experiments were performed in triplicate.
(§2) FIG. 5. […] Experiments were performed in triplicate.
as §1
Cell viability was determined as previously described5. Aliquots of 1.5×10^4 cells were plated in 96-well microdilution plates. Following overnight cell adherence, experimental media containing the drugs or control media was added to appropriate wells. After 48 hours, the media was replaced by drug-free fresh media (100 μl/well) containing MTT (50 μg). After a 3 hour incubation at 37° C. in 5% CO2 atmosphere, the MTT was removed and MTT-formazan crystals were dissolved in DMSO (100 μl/well). Absorbance at 570 nm was determined on an automatized microtiter plate reader.

[3] = system: colon cancer cell lines (RKO, Co115, HCT-116, SW48, LoVo); assay: Apoptosis by flow cytometry (YO-PRO-1/propidium iodide); type: cell-based, human; parameters: apoptosis (propidium iodide): dose or concentration left out as unconfirmed; conditions: for apoptosis (propidium iodide): HDAC2-deficient RKO cells, 24 h with SAHA
Method: as §2, §1
(§3) The percentage of apoptotic cells was determined by flow cytomery using Vybrant® Apoptosis Assay Kit #4-YO-PRO®-1/propidium iodide (Molecular Probes/Invitrogen). To analyze the cell cycle profiles, we stained with propidium iodide and the percentage of cells in G2/M was determined by flow cytometry.

[4] = system: HCT116, RKO and Co115 tumor xenografts; assay: Mouse xenograft model with PBS, TSA and BUT treatments; type: in vivo, athymic nude mice
Text: a, PBS, BUT and TSA treated female athymic nude mice 17 days after injection of RKO (left flank) and HCT116 (right flank) cells.
b, Tumors were excised and weighed. Tumor detail in cm and weight in mg for PBS-, BUT- and TSA-HCT116, RKO and C0115 cells.
c, Effect of the HDAC inhibitors TSA and sodium butyrate (But) on the in vivo growth of HCT116, RKO and C0115. Tumor size was monitored over time and size in mm3. Dark square: PBS treatment, Dark circle: TSA treatment, Dark triangle: BUT treatment.
Six-week-old female athymic nude mice nu/nu (Harlam Sprague-Dawley, Indianapolis, Ind.), housed under specific pathogen-free conditions (Institutional Animal Welfare Committee Agreement), were used for HCT116, RKO and Co115 tumor xenografts. For treatments, animals were randomly separated in three seven-specimens-groups, differentiated for PBS (Control), TSA (Trichostatin A) and BUT (Butyric acid) treatments. Both flanks of each animal were injected s.c. with 106 (HCT116) or 2×106 (RKO and CO115) cells in a total volume of 200 μL of PBS. For transfections assays both flanks of each animal were injected subcutaneously with 2×106 RKO (left) or RKO-HDAC2-transfected (right) cells in a total volume of 200 μL of PBS. Tumor development at the site of injection was evaluated daily. Animals were sacrificed at 21 days. The tumors were then excised and weighed.

[5] = system: colon cancer cell lines (RKO, Co115, HCT-116, SW48, LoVo); assay: Cell cycle analysis (percentage of cells in G2/M, propidium iodide flow cytometry); type: cell-based, human; conditions: for blockage of the cell cycle at G2/M: all cancer cell lines independently of HDAC2 status; for G2/M cell cycle arrest: TSA
Method: as §1, §3

[6] = system: HDAC2-knocked down HCT116 cells; type: cell-based, human
Text: (§4) We quantified global histone H4 acetylation as previously described3. We prepared individual histone fractions from cell nuclei and purified them by reverse-phase HPLC on a Jupiter C18 column (Phenomenex, Inc.) with an acetonitrile gradient (20-60%) in 0.3% trifluoroacetic acid, using a HPLC gradient system (Beckman-Coulter). We resolved non-, mono, di-, tri- and tetra-acetylated histone H4 derivatives by HPCE. We used an uncoated fused-silica capillary (Beckman-Coulter; 60.2 cm 75 μm, effective length 50 cm) in a capillary electrophoresis system (P/ACE MDQ, Beckman-Coulter) with 100 mM phosphate buffer (pH 2.0) 0.02% (w/v) HPM-cellulose as running buffer and operating voltages of 12 kV.

[7] = system: RKO-HDAC2-transfected cells; assay: H4 acetylation by HPCE in RKO cells transfected with HDAC2; type: cell-based, human; conditions: RKO cells transfected with wild-type HDAC2
Text: b, Quantification of H4 acetylation by HPCE.
as §4
The HDAC2 expression vector pcDNA3-HDAC2 was constructed by cloning the cDNA corresponding to the gene HDAC2 in pcDNA vector (Invitrogen). […] C1ones expressing HDAC2 were selected in complete medium supplemented with 1 mg/mL G418. Stable clones were maintained in complete medium with 1 mg/mL G418. For colony formation experiments, stable G418-resistant colonies were fixed, stained with 2% methylene blue in 60% methanol, and the average number of colonies present in each well was determined.

[8] = all colorectal cell lines irrespective of HDAC2 status, 10 mM sodium valproate or 10 mM sodium butyrate
[9] = all cancer cell lines independently of HDAC2 status
[10] = HDAC2-proficient cell lines, TSA
[11] = HDAC2-proficient cell lines, TSA, listed as TSA

SMILES: CCCC(=O)[O-].[Na+] [butyrate, sodium butyrate]
- hyperacetylation of histones H3 and H4 [1, 8]: induce hyperacetylation in all cells; also recorded: able to induce hyperacetylation
- inhibition of proliferation [2]: significantly inhibited proliferation
- induction of apoptosis [3, 9]: induced apoptosis
- tumor shrinkage ([4]; all cancer cell lines xenografted in nude mice (HCT-116, RKO, Co115), independently of HDAC2 status): induced tumor shrinkage
- blockage of the cell cycle at G2/M [5]: able to induce blockage of the cell cycle at G2/M

SMILES: O=C(CCCCCCC(=O)Nc1ccccc1)NO [SAHA, suberoylanilide hydroxamic acid]
- apoptosis (propidium iodide) [3]: enhanced resistance
- apoptosis (propidium iodide) ([3]; listed as suberoylanilide hydroxamic acid (SAHA)): unable to efficiently inhibit cell growth and induce apoptosis

SMILES: CC(/C=C/C(=O)NO)=C\[C@@H](C)C(=O)c1ccc(N(C)C)cc1 [trichostatin A]
- hyperacetylation of histones H3 and H4 ([1]; HDAC2-deficient RKO and Co115 cell lines, 0.25 μM trichostatin A): unable to induce the hyperacetylation
- hyperacetylation of histones H3 and H4 ([1]; HDAC2-deficient RKO and Co115 cell lines, 0.25 μM trichostatin A, listed as TSA): does not induce histone hyperacetylation
- hyperacetylation of histones H3 and H4 ([1]; HDAC2-wild type cells (HCT-116, SW48, LoVo), 0.25 μM trichostatin A): effective
- hyperacetylation of histones H3 and H4 ([1]; HDAC2-wild type cells (HCT-116, SW48, LoVo), 0.25 μM trichostatin A, listed as TSA): hyperacetylation is achieved
- biochemical and cellular (antiproliferative and proapoptotic) effects of HDAC inhibitors ([2]; HDAC2-deficient cancer cells, general statement): resistant; also recorded: impairs
- cell growth inhibition ([2]; HDAC2-deficient cells (RKO, Co115), TSA 0-1000 nM, 48 h): remained highly resistant
- cell growth inhibition ([2]; HDAC2-deficient cells (RKO, Co115), TSA 0-1000 nM, 48 h, listed as TSA): marked resistance; also recorded: enhanced resistance
- cell growth inhibition [2, 10]: only able to accomplish these effects in the HDAC2-proficient cell lines
- cell growth inhibition [2, 11]: induces
- induction of apoptosis ([3]; HDAC2-mutant cells (RKO), TSA): remained highly resistant
- induction of apoptosis ([3]; HDAC2-mutant cells (RKO), TSA, listed as TSA): marked resistance
- induction of apoptosis [3, 10]: only able to accomplish these effects in the HDAC2-proficient cell lines
- induction of apoptosis [3, 11]: induces
- histone H4 acetylation mediated by TSA (HPCE) [6]: resistant to histone acetylation; also recorded: resistance
- tumor shrinkage ([4]; HDAC2-mutant RKO and Co115 xenografts in nude mice): remained highly resistant
- tumor shrinkage ([4]; HDAC2-mutant RKO and Co115 xenografts in nude mice, listed as TSA): remained resistant
- tumor shrinkage ([4]; HDAC2-proficient HCT-116 xenografts in nude mice): only able to accomplish these effects in the HDAC2-proficient cell line (HCT-116)
- G2/M cell cycle arrest ([5]; HDAC2-mutant cells (RKO)): remained highly resistant
- G2/M cell cycle arrest ([5]; HDAC2-mutant cells (RKO), listed as TSA): marked resistance
- G2/M cell cycle arrest ([5]; HDAC2-proficient cell lines): only able to accomplish these effects in the HDAC2-proficient cell lines
- G2/M cell cycle arrest ([5]; HDAC2-proficient cell lines, listed as TSA): induces
- histone H4 acetylation mediated by TSA (HPCE) [7]: more sensitive
- histone H4 acetylation mediated by TSA (HPCE) ([7]; listed as TSA): show resistance to histone acetylation

SMILES: CCCC(CCC)C(=O)[O-].[Na+] [valproate, sodium valproate]
- hyperacetylation of histones H3 and H4 [1, 8]: induce hyperacetylation in all cells; also recorded: able to induce hyperacetylation
- inhibition of proliferation [2]: significantly inhibited proliferation
- induction of apoptosis [3, 9]: induced apoptosis
- blockage of the cell cycle at G2/M [5]: able to induce blockage of the cell cycle at G2/M

Source: patent US20090275633A1, “Novel Tumour Suppressor” (ONCOMETHYLOME SCIENCES SA, priority 2006, published 2009)
